Reference: paper PMC10218449, “Evidence for Angiotensin II as a Naturally Existing Suppressor for the Guanylyl Cyclase A Receptor and Cyclic GMP Generation” (International Journal of Molecular Sciences, 2023)

Assays:
[1] = Circulating ANP levels in normal rats after infusion; assay type: in vivo, rat (Sprague-Dawley, male)
Description: (F) Urine output represented by urine volume collected at every 30 min interval during continuous infusion. (G) Urinary sodium excretion during the entire 90 min continuous infusion.
Protocols in this study have been approved by the Mayo Clinic Institutional Animal Care and Use Committee (IACUC). Rats (Sprague-Dawley, male, 10–11 weeks old) were anesthetized and maintained with 2% isoflurane. Rats were kept on heating pad at 37 °C for the entire experiment to maintain their body temperature. Polyethylene tubes (PE-50) were placed into a jugular vein for saline and peptides infusion and into a carotid artery for BP monitoring and blood sampling. The bladder was cannulated with a PE-90 tube for passive urine collection. […] After the 45 min equilibrium, BP was recorded, and blood was sampled as baseline reference value. […] Urine samples were collected every 30 min period and BP was measured every 15 min using CardioSOFT Pro software (Sonometrics Corporation). […] The volume of urine was measured, and the sodium concentrations were measured with an electrocyte analyzer (Diamond Diagnostics Inc., Holliston, MA, USA). Both plasma and urine samples were then stored at −80 °C until assayed. cGMP was measured in rat plasma and urine samples by a cGMP ELISA (Enzo Life Sciences, Farmingdale, NY, USA) as previously reported.

[2] = system: HEK293/GC-A^+/AT1^+ cells (human GC-A and AT1); assay: Intracellular cGMP generation in HEK293/GC-A+/AT1+ cells; assay type: cell-based; details: valsartan 1 µM or Go6983 5 µM; ANP 10^−8 M, ANGII 10^−8 M; one-way ANOVA with Dunnett, p < 0.05
Excerpt: We leveraged HEK293 cells as a cellular tool for mechanistic exploration in the current study. HEK293 cells (passage 4–6) were maintained in Dulbecco’s modified Eagle’s medium (DMEM) supplemented with 10% fetal bovine serum, 100 U/mL penicillin, 100 U/mL streptomycin, and designated antibiotics. HEK293/GC-A^+ and HEK293/GC-B^+ cell lines were generated from HEK293 parental cell transfected with plasmids (OriGene, Rockville, MD, USA) containing either human GC-A or GC-B cDNA sequences. Both GC-A and GC-B plasmid carried sequences for a green florescence protein (GFP) tag and resistance to Neomycin (G418). HEK293/GC-A^+/AT1^+ and HEK293/GC-A^+/AT2^+ cell lines were generated from HEK293/GC-A^+ transfected with lentiviral particle with clones of either human AT1 or AT2 receptor (OriGene, Rockville, MD, USA) using a polybrene transfection agent. Initial transfection was completed with multiplicity of infection (MOI) at 20, 10, and 1. The lentiviral vector carried sequence for resistance to puromycin. Positive HEK293/GC-A^+ and HEK293/GC-B^+ cells were cultured in a regular medium with 250 μg/mL G418; Likewise, positive HEK293/GC-A^+/AT1^+ or HEK293/GC-A^+/AT2^+ cells were cultured in a regular medium with 250 μg/mL G418 (to select for GC-A^+ cells) and 1 μg/mL puromycin (to select for AT1^+ or AT2^+ cells). […]

PKC = PKC activity (phosphorylated pan-PKC substrates, western blot); assay type: cell-based, human; details: Go6983 at 5 µM, HEK293/GC-A^+/AT1^+ cells
Excerpt: (§1) Figure 5 Involvement of PKC Signaling in the Crosstalk between ANGII and GC-A. (A) Protein expression of different human PKC isoforms in the membrane and cytosol fractions of different HEK293 cell lines (with or without treatment of ANGII). GC-A and NaK-ATPase serve as quality control for the separation of membrane and cytosol fractions. GAPDH serves as an additional control as it is primarily expressed in the cytosol fraction compared to membrane fraction. (B) Protein expression of phosphorylated PKC substrates, phosphorylated p38 MAPK, and p38 MAPK in HEK293/GC-A^+/AT1^+ cells treated with different PKC modulators. GAPDH serves as a loading control and 50 µg of total protein (determined using BCA method) was loaded in each lane. PMA, phorbol 12-myristate 13-acetate. […] (D) Hypothetical mechanism underlying the crosstalk between ANGII and GC-A derived from our in vitro studies: (1) ANGII naturally suppresses GC-A mediated cGMP production via AT1 receptor, but not the AT2 receptor nor direct effect on GC-A; (2) PKC is a critical downstream target of AT1 mediating this RAAS/NPS interaction.
(§2) HEK293 parental cells, HEK293/GC-A^+, HEK293/GC-B^+, HEK293/GC-A^+/AT1^+, and HEK293/GC-A^+/AT2^+ cells were cultured in 60 mm dish to reach 90–100% confluency before being harvested in RIPA buffer (Thermo Fisher Scientific, Waltham, MA, USA) with protease inhibitors. […]

p38 MAPK = assay: MAPK phosphorylation (p38 MAPK, western blot); assay type: cell-based, human; details: Go6983 at 5 µM, HEK293/GC-A^+/AT1^+ cells
Excerpt: as §1, §2

In the case of CC[C@H](C)[C@H](NC(=O)[C@H](Cc1ccc(O)cc1)NC(=O)[C@@H](NC(=O)[C@H](CCCNC(=N)N)NC(=O)[C@@H](N)CC(=O)O)C(C)C)C(=O)N[C@@H](Cc1cnc[nH]1)C(=O)N1CCC[C@H]1C(=O)N[C@@H](Cc1ccccc1)C(=O)O [ANGII, angiotensin II], the “circulating ANP levels, effect of ANGII co-infusion (in words)” value ([1]; ANGII 50 pmol/kg/min with ANP 300 pmol/kg/min vs ANP alone, 90 min, N = 4 per group) is reported as “no influence on circulating ANP levels”.

For CC[C@H](C)[C@@H]1NC(=O)[C@H](CCCNC(=N)N)NC(=O)[C@H](CC(=O)O)NC(=O)[C@H](CCSC)NC(=O)[C@H](CCCNC(=N)N)NC(=O)CNC(=O)CNC(=O)[C@H](Cc2ccccc2)NC(=O)[C@@H](NC(=O)[C@H](CO)NC(=O)[C@H](CO)NC(=O)[C@H](CCCNC(=N)N)NC(=O)[C@H](CCCNC(=N)N)NC(=O)[C@H](CC(C)C)NC(=O)[C@@H](N)CO)CSSC[C@@H](C(=O)N[C@@H](CC(N)=O)C(=O)N[C@@H](CO)C(=O)N[C@@H](Cc2ccccc2)C(=O)N[C@@H](CCCNC(=N)N)C(=O)N[C@@H](Cc2ccc(O)cc2)C(=O)O)NC(=O)CNC(=O)[C@H](CC(C)C)NC(=O)CNC(=O)[C@H](CO)NC(=O)[C@H](CCC(N)=O)NC(=O)[C@H](C)NC(=O)CNC1=O [ANP, atrial natriuretic peptide], the “circulating ANP level” value ([1]; ANP alone, 300 pmol/kg/min continuous i.v. infusion, plasma at 90 min, mean ± SEM, N = 4, endogenous level 15.3 ± 1.4 pg/mL) was 18125.1 ± 1729.3 pg/mL.

With CCCCC(=O)N(Cc1ccc(-c2ccccc2-c2nnn[nH]2)cc1)[C@H](C(=O)O)C(C)C [valsartan] the “rescue of ANGII suppression of ANP-induced cGMP (in words)” value [2] was “significantly rescued the suppression effect of ANGII on ANP-induced cGMP”.

In the case of Go6983, the “rescue of ANGII suppression of ANP-induced cGMP (in words)” value [2] is reported as “significantly rescued the suppression effect of ANGII on ANP-induced cGMP”, the “PKC activity inhibition (in words)” value (PKC) is reported as “effectively inhibited PKC activity” and the “MAPK dependence of PKC inhibition (in words)” value (p38 MAPK) is reported as “mitogen-activated protein kinase (MAPK) independent manner”.
